The NIST ThermoML archive (doi:10.1021/acs.jced.5b00367)

Assay: wn = mass fraction of the nth substance listed
Details: 101 kPa, Liquid, Alternating current cell with electrodes, w2 = 0.01

CCCCCCCCCCCCCCCC[N+](C)(C)C.[Br-] [N,N,N-trimethyl-1-hexadecanaminium bromide] + O
Details	electrical conductivity [S/m]
278.35 K	0.0058
278.45 K	0.00619
278.65 K	0.00607
278.75 K	0.00612
278.85 K	0.0062
278.95 K	0.00609
279.05 K	0.00617
279.15 K	0.00614
279.25 K	0.0062
279.35 K	0.00616
279.45 K	0.00619
279.55 K	0.00628
279.65 K	0.00609
279.85 K	0.0061
279.95 K	0.00631
280.05 K	0.00615
280.15 K	0.00638
280.25 K	0.00613
280.35 K	0.00642
280.45 K	0.00634
280.55 K	0.00613
280.65 K	0.00616
280.75 K	0.00638
280.95 K	0.00614
281.05 K	0.00624
281.25 K	0.00621
281.35 K	0.00655
281.45 K	0.00644
281.55 K	0.00622
281.75 K	0.00649
281.85 K	0.00648
282.05 K	0.00651
282.45 K	0.00667
282.55 K	0.00678
282.65 K	0.00648
282.75 K	0.00655
282.95 K	0.00662
283.05 K	0.00638
283.15 K	0.00641
283.25 K	0.0067
283.35 K	0.00677
283.45 K	0.00666
283.55 K	0.0068
283.75 K	0.00674
283.85 K	0.0068
283.95 K	0.00686
284.05 K	0.00653
284.15 K	0.00678
284.25 K	0.00646
284.45 K	0.00672
284.55 K	0.007
284.65 K	0.00699
284.75 K	0.00651
284.85 K	0.00686
285.05 K	0.00717
285.15 K	0.00708
285.25 K	0.00696
285.35 K	0.00725
285.45 K	0.00739
285.55 K	0.00715
285.65 K	0.00719
285.85 K	0.00716
285.95 K	0.00733
286.05 K	0.00702
286.15 K	0.00705
286.25 K	0.007
286.35 K	0.00737
286.45 K	0.00737
286.55 K	0.00715
286.65 K	0.00719
286.75 K	0.00733
286.85 K	0.0074
286.95 K	0.00708
287.05 K	0.00755
287.15 K	0.00733
287.25 K	0.00744
287.35 K	0.00761
287.45 K	0.00728
287.55 K	0.00751
287.65 K	0.00752
287.75 K	0.0073
287.85 K	0.0076
287.95 K	0.00774
288.05 K	0.0076
288.15 K	0.00778
288.25 K	0.00766
288.35 K	0.00772
288.45 K	0.00805
288.55 K	0.00791
288.65 K	0.00778
288.75 K	0.00779
288.85 K	0.0077
288.95 K	0.00795
289.05 K	0.00784
289.15 K	0.00787
289.25 K	0.00779
289.35 K	0.00805
289.45 K	0.00794
289.55 K	0.00793
289.65 K	0.00803
289.75 K	0.00826
289.85 K	0.00819
289.95 K	0.00835
290.05 K	0.0079
290.15 K	0.00861
290.25 K	0.00828
290.35 K	0.00849
290.45 K	0.00815
290.55 K	0.00824
290.65 K	0.00834
290.75 K	0.00836
290.85 K	0.00818
290.95 K	0.00836
291.05 K	0.00861
291.15 K	0.00846
291.25 K	0.0088
291.35 K	0.00865
291.45 K	0.00866
291.55 K	0.00853
291.65 K	0.00868
291.75 K	0.00867
291.85 K	0.00897
291.95 K	0.00872
292.05 K	0.00879
292.15 K	0.00913
292.25 K	0.00908
292.35 K	0.00902
292.45 K	0.00905
292.55 K	0.00904
292.65 K	0.00928
292.75 K	0.00942
292.85 K	0.00967
292.95 K	0.00959
293.05 K	0.00954
293.15 K	0.00976
293.25 K	0.01
293.35 K	0.0101
293.45 K	0.0102
293.55 K	0.0103
293.65 K	0.0105
293.75 K	0.0102
294.15 K	0.0106
294.25 K	0.0109
294.35 K	0.0107
294.45 K	0.011
294.55 K	0.0111
294.65 K	0.0109
294.75 K	0.011
294.85 K	0.0114
294.95 K	0.0113
295.05 K	0.0114
295.15 K	0.0117
295.25 K	0.0117
295.45 K	0.0122
295.65 K	0.0126
295.75 K	0.0124
295.85 K	0.0128
296.05 K	0.013
296.15 K	0.0139
296.35 K	0.0139
296.45 K	0.0145
296.55 K	0.0148
296.75 K	0.0157
296.95 K	0.0167
297.05 K	0.0178
297.15 K	0.02
297.35 K	0.0201
297.45 K	0.0217
297.55 K	0.0232
297.65 K	0.0257
297.95 K	0.0314
298.05 K	0.0353
298.25 K	0.0406
298.35 K	0.0457
298.45 K	0.0514
298.55 K	0.0565
298.75 K	0.0605
298.85 K	0.0628
299.05 K	0.0642
299.15 K	0.0647
299.25 K	0.0648
